Results published in patent US5656256A (The University of North Carolina at Chapel Hill, priority 1994, dated 1997).

What was measured:
[1] = target: T1, airway epithelial Na+ channels (Homo sapiens, UniProt P37088+P51168+P51170); test: Short-circuit current (Isc) measurement of sodium transport in cultured human nasal epithelium, Ussing chamber; type: cell-based; details: for concentration achieving the same level of complete sodium channel blocking, less than amiloride: apical surface of human nasal epithelium, relative to amiloride
T1 construct: Cells from freshly excised specimens are protease isolated; endogenous in cells
T1 sequence (P37088 1-669): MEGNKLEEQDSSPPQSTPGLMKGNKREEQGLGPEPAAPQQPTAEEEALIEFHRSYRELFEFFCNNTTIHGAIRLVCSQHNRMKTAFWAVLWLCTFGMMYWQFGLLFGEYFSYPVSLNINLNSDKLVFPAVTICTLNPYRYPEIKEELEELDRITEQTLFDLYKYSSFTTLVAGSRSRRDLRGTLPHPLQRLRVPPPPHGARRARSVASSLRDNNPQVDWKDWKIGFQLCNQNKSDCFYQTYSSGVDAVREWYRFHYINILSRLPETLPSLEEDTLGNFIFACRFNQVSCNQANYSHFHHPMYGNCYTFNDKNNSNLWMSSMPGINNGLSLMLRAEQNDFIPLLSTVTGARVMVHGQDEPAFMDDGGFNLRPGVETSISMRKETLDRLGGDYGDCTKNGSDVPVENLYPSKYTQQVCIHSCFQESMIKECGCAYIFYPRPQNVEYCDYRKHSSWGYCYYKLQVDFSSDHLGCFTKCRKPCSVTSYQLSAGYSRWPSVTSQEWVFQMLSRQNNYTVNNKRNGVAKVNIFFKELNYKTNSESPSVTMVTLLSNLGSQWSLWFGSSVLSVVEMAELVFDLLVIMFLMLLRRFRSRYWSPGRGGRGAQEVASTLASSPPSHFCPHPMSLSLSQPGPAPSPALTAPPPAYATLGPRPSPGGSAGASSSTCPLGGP
T1 sequence (P51168 1-640): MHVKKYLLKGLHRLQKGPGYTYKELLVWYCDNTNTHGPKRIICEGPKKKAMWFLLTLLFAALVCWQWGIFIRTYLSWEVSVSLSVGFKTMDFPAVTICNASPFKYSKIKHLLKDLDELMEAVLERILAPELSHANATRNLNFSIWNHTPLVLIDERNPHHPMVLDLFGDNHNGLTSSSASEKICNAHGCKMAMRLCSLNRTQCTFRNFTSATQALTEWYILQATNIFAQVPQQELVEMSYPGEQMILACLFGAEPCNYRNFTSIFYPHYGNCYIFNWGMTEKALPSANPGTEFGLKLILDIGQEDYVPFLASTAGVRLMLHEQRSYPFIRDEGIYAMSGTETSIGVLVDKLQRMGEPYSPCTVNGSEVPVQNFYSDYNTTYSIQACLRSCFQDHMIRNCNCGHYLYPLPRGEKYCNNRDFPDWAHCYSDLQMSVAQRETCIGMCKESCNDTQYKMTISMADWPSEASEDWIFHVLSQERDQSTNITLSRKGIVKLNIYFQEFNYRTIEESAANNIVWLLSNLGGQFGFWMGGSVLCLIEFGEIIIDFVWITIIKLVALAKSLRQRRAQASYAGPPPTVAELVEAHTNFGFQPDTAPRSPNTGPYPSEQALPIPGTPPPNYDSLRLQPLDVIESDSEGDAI
T1 sequence (P51170 1-649): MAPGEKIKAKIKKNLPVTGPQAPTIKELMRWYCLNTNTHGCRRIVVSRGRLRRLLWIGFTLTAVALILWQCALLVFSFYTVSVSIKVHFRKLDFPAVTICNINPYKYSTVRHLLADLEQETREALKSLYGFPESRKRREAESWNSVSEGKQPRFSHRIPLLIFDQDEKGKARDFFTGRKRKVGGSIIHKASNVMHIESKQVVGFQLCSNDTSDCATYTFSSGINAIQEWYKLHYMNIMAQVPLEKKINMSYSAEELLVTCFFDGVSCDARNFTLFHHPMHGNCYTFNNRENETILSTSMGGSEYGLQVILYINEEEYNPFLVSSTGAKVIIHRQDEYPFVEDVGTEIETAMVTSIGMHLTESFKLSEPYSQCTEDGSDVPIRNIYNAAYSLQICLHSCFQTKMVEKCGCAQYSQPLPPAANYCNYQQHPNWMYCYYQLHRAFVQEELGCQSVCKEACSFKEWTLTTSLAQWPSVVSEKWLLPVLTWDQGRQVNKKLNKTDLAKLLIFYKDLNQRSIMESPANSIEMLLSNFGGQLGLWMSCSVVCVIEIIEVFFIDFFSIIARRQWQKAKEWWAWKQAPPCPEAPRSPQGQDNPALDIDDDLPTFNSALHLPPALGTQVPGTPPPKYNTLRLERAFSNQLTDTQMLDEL
Description: The cell culture procedures used in this example are performed as described in Willumsen, N. J., et al., Am. J. Physiol. 256:C1033-C1044 (Cell. Physiol. 25) (1989) and Yankaskas, J. R., et al., Am. Rev. Respir. Dis. 132:1281-1287 (1985). Cells from freshly excised specimens are protease isolated with protease XIV (Sigma, St, Louis, Mo.), concentrated,and plated on collagen membranes in the bottom of plastic-tissue culture cups. The cells are fed for 5 days with serum-free F-12 medium containing the following additives (F-12/7X): insulin, epidermal growth factor, cholera toxin, transferrin, hydrocortisone, triiodothyronine, and endothelial cell growth substance. Subsequently, they are fed with F-12/7X media supplemented (1:1) with 3T3 fibroblast-conditioned media containing 1% fetal bovine serum. After the fifth day in culture, the transepithelial potential difference (PD) developed by the culture is measured daily to detect the occurrence of confluency. Cell preparations are routinely studied within 1 day of the development of the maximal PD.
J. Physiol. (Cell Physiol. 25) 256:C1033-C1053 (1989).
The tissue preparation described in Example 1 is mounted in a modified (superfusion, not recirculating), miniature Ussing chamber interfaced to a voltage clamp that measures transepithelial PD and the PD response to constant current (I) pulses. The chamber contains 1 ml of bathing solution for each (apical; basolateral) surface of the preparation. The solution used as the vehicle for drug delivery is a Krebs bicarbonate Ringer solution (KBR) which approximates the ionic composition of plasma. This solution is warmed (37°) and gassed (95% oxygen, 5% CO2) to maintain pH 7.4. The cultured cells are superfused on both surfaces with KBR.
The measurement of sodium transport rates is performed by recording the spontaneous transepithelial PD (Vt) and responses of the PD to constant current pulses. From the relationship between Vt and induced Vt deflections, the transepithelial resistance (Rt) is calculated. The short-circuit current (Isc), or measure of sodium transport rate, is determined as Isc =Vt /Rt.
Each cultured human airway epithelial preparation is exposed to different concentrations (10^-8 M-10^-3 M) of a sodium-channel blocking drug on either the basolateral or apical surface for the dose response studies. To construct concentration-effect relationships of the response to the drugs, it was assumed that the same maximum response to a drug could be induced from each tissue culture preparation from the same individual.

[2] = target: T1, airway epithelial Na+ channels; test: Persistence of Na+ absorption blockade after washout of drug, Ussing chamber; type: cell-based; details: 10^-5 M for 5 minutes to the luminal surface, then KBR perfusion; time for Isc to return to basal
Text: In vivo, drug is delivered to the lungs as a single bolus. […] This Example illustrates the contribution of binding of drug to the target site (2) to the duration of drug action.
A protocol was designed to measure the duration of drug action after removal of drug from the airway surface liquid compartment. For this protocol, human airway epithelial preparations as described in Example 1 are mounted in modified Ussing chambers and interfaced to voltage clamps as described above in Example 2. Basal measurements of Isc in KBR are made and the steady state response to a 5 minute administration of a single maximal effective concentration (10^-5 M) of drug delivered to the luminal surface is measured. Following this step, administration of the drug is stopped, the lumen is perfused with standard KBR solutions, and the time required for Isc to return to baseline or basal levels is measured.

SMILES: N=C(N)NC(=O)c1nc(Cl)c(N)nc1N [amiloride]
- potency as blocker of apical Na+ channels (in words) ([1]; steady-state inhibition of Na+ transport, human nasal epithelia): significantly less potent than benzamil or phenamil

SMILES: NC(=NCc1ccccc1)NC(=O)c1nc(Cl)c(N)nc1N [benzamil, 3,5-diamino-6-chloro-N-(benzylaminoaminomethylene)pyrazinecarboxamide]
- duration of activity after washout compared to amiloride [2]: almost twice as long as amiloride
- concentration achieving the same level of complete sodium channel blocking, less than amiloride [1]: approximately one
- potency compared to amiloride (more potent by) [1]: 1-1.5 log-concentration units

SMILES: NC(=Nc1ccccc1)NC(=O)c1nc(Cl)c(N)nc1N [phenamil, 3,5-diamino-6-chloro-N-(phenylaminoaminomethylene)pyrazinecarboxamide]
- duration of activity after washout compared to amiloride [2]: almost twice as long as amiloride
- concentration achieving the same level of complete sodium channel blocking, less than amiloride [1]: approximately one
- potency compared to amiloride (more potent by) [1]: 1-1.5 log-concentration units
